Data as given in patent US20240108645A1, “SENESCENCE AND SENESCENCE ASSOCIATED SECRETORY PHENOTYPE” (Metro Biotech NSW Pty Ltd, priority 2013, published 2024).
“Also recorded” adds a separate entry of the source.

Legend:
[1] = system: p16^INK4A; test: Doxorubicin-induced senescence in p16^LUC mice, bioluminescence/CT imaging; format: in vivo; settings: doxorubicin alone 1 mg/kg i.p.; imaging 24 hours after treatment
Method: Vehicle control: 10% DMSO in PBS administered intraperitoneally; • 2. Apigenin: administered in diet at 500 mg/kg of food in addition to vehicle control administered i.p.; • 3. […] Apigenin administered in chow diet at 500 mg/kg of food, and doxorubicin administered at 1 mg/kg body weight i.p. Apigenin was administered 4 days prior to administration of doxorubicin. The animals were subjected to bioluminescence/CT imaging (Spectrum-CT instrument, PerkinElmer) as a readout for senescence 24 hours after treatment was completed. Areas of luminescence are shown as lightened areas in FIG. 5 and are indicated by an arrow.

[2] = Body weight after doxorubicin; format: in vivo, male C57BL6 mice; settings: doxorubicin 10 mg/kg i.p. single dose at day 8
Method: Vehicle control: 10% DMSO in PBS administered intraperitoneally; • 2. Apigenin: administered in diet at 500 mg/kg of diet, in addition to vehicle control administered i.p.; • 3. […] Apigenin administered in diet of 500 mg/kg of diet, and doxorubicin administered at 10 mg/kg body weight i.p. Apigenin was administered 8 days prior to administration of a single dose of doxorubicin. Body weight was assessed during the course of the experiment as a read-out of general health and malaise, the results of which are shown in FIG. 11.

[3] = system: p16^INK4a; test: Imiquimod-induced skin senescence in p16^LUC mice, bioluminescence imaging; format: in vivo, SKH1 hairless p16^LUC mice
Source text: In order to study the effects of NAD^+ agonists on cellular senescence associated with the skin, which is associated with inflammation, senescence was induced in a luciferase knockin (p16^LUC) mouse (Burd et al. (2013) Cell 152: 340-351) using topical application of Imiquimod. Imiquimod (IMQ) is an immune modulator topically applied for skin conditions such as melanoma and genital warts. The side effect of IMQ is severe, painful inflammation and aging of the skin.
P16^LUC mice contain the firefly luciferase cDNA inserted into the translational start site of the endogenous p16^INK4a gene. Conditions which induce expression of the p16^INK4a gene, and therefore induce cellular senescence, also induce expression of firefly luciferase in p16^LUC mice (Burd et al. […] Cell 152:340-351; Sorrentino et al. (2014) The Journal of Clinical Investigation, 124(1): 169-351).
The following formulations were prepared: • 1. Cream carrier (containing no IMQ) (control or ctrl); • 2. IMQ cream (containing 5% IMQ) mixed with 10% water (IMQ); and • 3. IMQ cream (containing 5% IMQ) mixed with […] NMN (equating to 5% NMN) (IMQ+NMN).
Each of 1, 2 and 3 were applied daily to the rump of SKH1 hairless p16^LUC mice for 4 days. The animals were subjected to bioluminescence imaging as a readout for senescence. Areas of fluorescence are indicated as darkened areas in FIG. 4.

[4] = biological target: T1, CD38 (Homo sapiens, UniProt P28907); settings: in vitro; Esande et al. (2013) Diabetes; cited from earlier work
T1 sequence (P28907 1-300): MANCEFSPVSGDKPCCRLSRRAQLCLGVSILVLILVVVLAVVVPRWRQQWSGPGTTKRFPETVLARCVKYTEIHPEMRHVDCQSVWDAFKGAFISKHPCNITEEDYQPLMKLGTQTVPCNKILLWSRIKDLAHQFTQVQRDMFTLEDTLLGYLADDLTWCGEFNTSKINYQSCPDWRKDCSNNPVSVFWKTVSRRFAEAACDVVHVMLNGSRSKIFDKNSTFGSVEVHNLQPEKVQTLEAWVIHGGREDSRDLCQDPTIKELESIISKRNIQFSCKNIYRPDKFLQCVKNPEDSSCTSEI

[5] = system: 3T3-L1 adipocytes; test: Intracellular lipid content (oil red o) of 3T3-L1 adipocytes treated with antiretroviral agents; settings: for intracellular lipid content (oil red o, absorbance at 544 nm): 24 hr
Method: The ability of NAD^+ agonists to reduce or prevent lipodystrophy associated with anti-retroviral compounds was assessed. The ability of NMN to prevent or reduce lipodystrophy was tested by determining the lipid content of 3T3-L1 adipocytes treated with a vehicle, or the antiretroviral agent stavudine, either alone or in combination with NMN.
3T3-L1 adipocytes were treated for 24 hr with the HIV antiretroviral compound stavudine (10 nM) in the presence or absence of NMN (1 mM). Intracellular lipid content was assessed using oil red o staining, which was quantified by reading absorbance at 544 nm. Error bars: SD.
In order to further test the ability of NAD^+ agonists to reduce lipodystrophy associated with antiretroviral agents, 3T3-L1 adipocytes were treated for 24 hr with various antiretroviral compounds (30 μM) in the presence or absence of NMN (1 mM) or apigenin (25 μM). Intracellular lipid content was assessed using oil red o staining, which was quantified by reading absorbance at 544 nm.

[6] = Blood glucose and free water (echoMRI) in dexamethasone treated rats; format: in vivo, Sprague-Dawley rats; settings: one day after injection
Method: To study the effects of NAD^+ agonists on senescence associated with treatment with corticoids, 250 g Sprague-Dawley rats were administered daily intraperitoneal injections of the following formulations for 3 days: • 1. Vehicle: saline • 2. Dexamethasone: 0.8 mg/kg of animal dexamethasone sodium phosphate • 3. Dexamethasone+NMN: 0.8 mg/kg body weight dexamethasone sodium phosphate and 1.5 g/kg body weight NMN.
After 3 days, blood glucose was determined.
Free water was assessed by echMRI one day after injection of the above formulations.

[7] = system: C2C12 myoblasts; test: SA-β-Gal staining of C2C12 myoblasts incubated with various agents; format: cell-based
Method: The ability of NAD^+ agonists to reduce senescence associated with various agents was tested by inclubating C2C12 myoblasts with various agents in the presence or absence of NMN or apigenin, and the cells subsequent stained as mentioned above for SA-β-Gal activity. The following agents were tested: [table]

[8] = system: C2C12 myoblasts; test: SA-β-Gal activity in C2C12 myoblasts by flow cytometry with C12FDG; format: cell-based
Method: To determine the ability of NAD^+ agonists to prevent or reduce senescence associated with treatment with corticoids, C2C12 myoblasts were assayed for SA-β-Gal activity following contact with vehicle, NMN, apigenin, dexamethasone, dexamethasone and NMN, and dexamethasone and apigenin. SA-β-Gal activity was determined using the fluorogenic substrate, C12FDG, by flow cytometry (protocol of Debacq-Chainiaux et al. Nature Protocols 2009). FIG. 7A: […] FIGS. 7B and 7C: […] SA-β-Gal activity was decreased with NMN and/or apigenin. All data are presented as the mean value. * p<0.05, **** p<0.0001, using two-way ANOVA multiple comparisons test.

[9] = system: 3T3-L1 adipocytes; test: SA-β-gal chromogenic staining of dexamethasone treated 3T3-L1 adipocytes; format: cell-based; settings: 5 days; dexamethasone 1, 0.5, 0.1 or 0.01 mg/ml; 1 mM NMN, 25 mM apigenin
Method: To further investigate the effects of NAD^+ agonists on dexamethasone induced senescence, 3T3-L1 adipocytes were treated for 5 days with ethanol (control), or 1 mg/ml, 0.5 mg/ml, 0.1 mg/ml or 0.01 mg/ml of dexamethasone in combination with either DMSA, 1 mM NMN, 25 mM apigenin, or 1 mM NMN and 25 mM apigenin and subjected to senescence associated beta-galactosidase staining according to the chromogenic protocol of Debacq-Chainiaux F et al Nature Protocols 2009.

With `COc1cccc2c1C(=O)c1c(O)c3c(c(O)c1C2=O)C[C@@](O)(C(=O)CO)C[C@@H]3O[C@H]1C[C@H](N)[C@H](O)[C@H](C)O1` [doxorubicin, reference compound] the “p16^INK4A induction (bioluminescence)” value [1] was “large areas of bioluminescence” and the body weight [2] was “permanent loss of body weight for at least 40 days”.
With `CC(C)Cn1cnc2c(N)nc3ccccc3c21` [IMQ, Imiquimod, reference compound] the “p16^IN14a induction (bioluminescence)” value ([3]; IMQ cream (5% IMQ) alone, applied daily to rump for 4 days) was “showed areas of p16^IN14a induction”.
In the case of `O=c1c(O)c(-c2ccc(O)c(O)c2)oc2cc(O)cc(O)c12` [quercetin, 2-(3,4-dihydroxyphenyl)-3,5,7-trihydroxy-4H-chromen-4-one, reference compound], the “inhibition of CD38 activity” value [4] is given as “inhibitors of CD38 activity in vitro”.
In the case of `Cc1cn([C@H]2C=C[C@@H](CO)O2)c(=O)[nH]c1=O` [stavudine, 2′,3′-didehydro-2′,3′-dideoxythymidine, reference compound], the “intracellular lipid content (oil red o, absorbance at 544 nm)” value ([5]; stavudine 10 nM alone, vs vehicle) is reported as “reduction in lipid content”.
In the case of `C[C@@H]1C[C@H]2[C@@H]3CCC4=CC(=O)C=C[C@]4(C)[C@@]3(F)[C@@H](O)C[C@]2(C)[C@@]1(O)C(=O)CO` [dexamethasone, reference compound], the “free water (echoMRI)” value ([6]; dexamethasone sodium phosphate 0.8 mg/kg i.p.) is reported as “significantly reduced the amount of free water”.
With `NC(=O)c1ccc[n+]([C@@H]2O[C@H](COP(=O)([O-])O)[C@@H](O)[C@H]2O)c1` [NMN, nicotinamide mononucleotide] the “extent of senescence (proportion of cells stained blue, SA-β-Gal activity)” value ([7]; agents of the table of b212 with vs without apigenin or NMN) was “reduce the extent of senescence induced by the agents tested”, the “extent to which the cells undergo senescence” value ([7]; co-administration with AZT, 3TC, zalcitabine, efavirenze, lopinavir, ritonavir, nevirapine, tipranavir, tenofovir, invirase vs agent alone) was “reduces the extent to which the cells undergo senescence” and the “extent to which the cells undergo senescence” value ([7]; co-administration with PPARγ agonist rosiglitazone vs rosiglitazone alone) was “reduces the extent to which the cells undergo senescence”. For the same molecule, the “extent to which the cells undergo senescence” value ([7]; co-administration with antiprotozoal agent quinacrine vs quinacrine alone) was “reduces the extent to which the cells undergo senescence”, the “extent to which the cells undergo senescence” value ([7]; co-administration with each of the chemotherapeutic agents listed in b109 vs agent alone) was “reduces the extent to which the cells undergo senescence” and the “extent to which the cells undergo senescence” value ([7]; co-administration with xanthine oxidase inhibitor allopurinol vs allopurinol alone) was “reduces the extent to which the cells undergo senescence”. The “extent to which the cells undergo senescence” value ([7]; co-administration with zolendronate vs zolendronate alone) was “reduces the extent to which the cells undergo senescence”, the “SA-β-Gal activity (FIG. 7A)” value ([8]; 48 hours, NMN 1 mM, both ethanol vehicle and dexamethasone (0.1 μg/ml) treated groups) was “significantly reduced SA-β-Gal activity” and the “SA-β-Gal activity (FIG. 7B)” value ([8]; 72 hours, dexamethasone sodium phosphate 250 nM or PBS, NMN 1 mM or apigenin 25 uM) was “decreased”. For the same molecule, the “SA-β-Gal activity (FIG. 7C)” value ([8]; 96 hours, dexamethasone sodium phosphate 250 nM or PBS, NMN 1 mM or apigenin 25 uM) was “decreased”, the “percentage of cells which exhibited SA-β-Gal activity following treatment with dexamethasone” value ([8]; summary of FIGS. 7A-7C) was “reduced the percentage of cells which exhibited SA-β-Gal activity” and the “erythema, scaling and redness of skin” value ([3]; IMQ and NMN topical vs IMQ) was “less erythema, scaling and redness”. For the same molecule, the “p16^IN14a induction (bioluminescence)” value ([3]; IMQ cream (5% IMQ) mixed with NMN (5% NMN), topical daily for 4 days, vs IMQ) was “little or no signs of p16^IN14a induction”, the “free water (echoMRI)” value ([6]; dexamethasone sodium phosphate 0.8 mg/kg plus NMN 1.5 g/kg i.p., vs dexamethasone) was “reversed this effect” and the “SA-β-gal staining (blue cells), dexamethasone induced senescence” value [9] was “reduced SA-β-gal staining; also recorded: reduce or prevent senescence induced by dexamethasone”. The “lipodystrophy (intracellular lipid content, oil red o)” value ([5]; NMN 1 mM, cells treated 24 hr with 30 μM AZT, 3TC, stavudine, Efavirenz, Lopinavir, Ritonavir, Tipranavir) was “reduced lipodystrophy” and the “intracellular lipid content (oil red o, absorbance at 544 nm)” value ([5]; stavudine 10 nM and NMN 1 mM, vs NMN and vehicle) was “no reduction in lipid content”.
